Measurements published in patent US9861616B2, “Methods for treating respiratory diseases and formulations therefor” (priority 2013, dated 2018).

Key:
[1] = tested on: B. cepacia strains from cystic fibrosis patients; experiment: Macrobroth dilution MICs, CF strains; assay type: cell-based; conditions: 2 B. cepacia strains from cystic fibrosis patients
Procedure: (§1) Two strains each of mucoid P. aeruginosa (both pyocyanin positive) and […] MRSA (only one strain with gold colonies) isolated from patients at a CF clinic were tested. Additionally, 2 B. cepacia strains were acquired, from Hershey Medical Center. All strains were identified by standard methods. Only one strain per patient was tested. MLVA was done on all strains to examine clonality, and confirmed that examination is not taking place on only one or a few clones. Strains will be stored in skim milk at −70° C. until use.
(§2) Original MICs of each strain to CEM-101 and other comparators were tested by CLSI microdilution methodology. Trays were obtained from Trek, Inc., Cleveland, Ohio. Time-kill macrobroth MIC dilution by CLSI was performed for all synergy testing.

[2] = tested on: P. aeruginosa strains from cystic fibrosis patients; experiment: Macrobroth dilution MICs, CF strains; assay type: cell-based; conditions: 2 P. aeruginosa strains from cystic fibrosis patients
Procedure: as §1, §2

[3] = tested on: MRSA SA 2230, SA 2232; experiment: Time-kill macrobroth MICs; assay type: cell-based, S. aureus
Procedure: as §2
(§3) Two of the MRSA strains were chosen and tested for synergy, together with the 4 Gram-negative strains mentioned above. Broth macrodilution formed the basis of MICs used in time-kill experiments, as detailed below. The kill kinetics of each drug was tested alone by incubating an initial inoculum of 5×10^5 to 5×10^6 cfu/mL with drug concentrations at the MIC, three dilutions above and three dilutions below the MIC (½, ¼ and ⅛×MIC). Viability counts were performed after 0, 3, 6, 12 and 24 h incubation at 37° C. in a shaking water bath by plating onto trypticase soy-5% sheep blood agar plates.

[4] = tested on: B. cepacia BCEP 953, BCEP 954; experiment: Time-kill macrobroth MICs; assay type: cell-based
Procedure: as §2, §3

[5] = tested on: P. aeruginosa PSAR 461, PSAR 468; experiment: Time-kill macrobroth MICs; assay type: cell-based
Procedure: as §2, §3

[6] = Tissue levels in repeat-dose toxicology studies; assay type: in vivo, rodents and non human primates; conditions: repeated dosing
[7] = Rodent ADME studies using radiolabeled CEM-101; assay type: in vivo; conditions: IV 20 mg/kg
Procedure: This relationship was confirmed in rodent ADME studies using radiolabeled CEM-101. […] After IV dosing at 20 mg/kg, the data was more variable and lung/plasma ratios of 17.6 for males and 6.2 for females were observed.

[8] = Tissue distribution; assay type: in vivo, monkey
[9] = Intrapulmonary penetration into ELF and AM, Phase 1 clinical study; assay type: in vivo, healthy adult subjects; conditions: 400 mg orally daily for 5 days, Day 5, 24 hour period
Procedure: CEM-101 is evaluated for the treatment of patients with community-acquired bacterial pneumonia. The penetration of CEM-101 into the epithelial lining fluid (ELF) and alveolar macrophages (AM) is assessed in a Phase 1 clinical study.
30 subjects received 400 mg of CEM-101 orally daily for 5 days. On Day 5, each subject underwent a single bronchoscopy and bronchoalveolar lavage at 1 of 5 time points (3, 6, 9, 12 or 24 h post-dose) to obtain ELF and AM samples (6 subjects/time point). Plasma samples were collected pre-dose on Days 1 to 5 and serially post-dose on Day 5 and 6. The samples collected were assayed for CEM-101 using LC/MS/MS. Urea in the plasma and ELF was used to correct the ELF CEM-101 concentrations. Noncompartmental pharmacokinetic (PK) analysis using the median concentrations at each time point was used to calculate Day 5 AUC0-24. In addition, a population PK model (PPM) was used to determine Day 5 AUC0-24 for each subject in plasma and ELF. Intrapulmonary penetration of CEM-101 into the ELF and AM was determined by dividing the Day 5 AUC0-24 of each matrix by the Day 5 plasma AUC0-24.

[10] = Plasma and ELF pharmacokinetics in healthy mice; assay type: in vivo
Procedure: (§4) CEM-101 PK data were obtained from healthy mice administered single CEM-101 doses ranging from 0.625 to 40 mg/kg. Plasma and ELF were collected over 24 h (3 mice/time point) and assayed for CEM-101. Urea in plasma and ELF was used to correct ELF concentrations. Neutropenic mice infected with 10^8 CFU of 1 of 5 S. pneumoniae isolates via inhalation were administered daily CEM-101 doses (0.156 to 160 mg/kg) via oral gavage. Dose-fractionation was performed for 1 isolate; CEM-101 was administered to the other 4 isolates as a Q6h or Q12h regimen. PK and PK-PD were evaluated using S-ADAPT 1.56.
(§5) A 3-compartment model with a parallel first-order and capacity-limited clearance and a capacity-limited first pass effect with fitted lag-times best described the plasma and ELF data (r2=0.98 and 0.83 for observed vs fitted concentrations, respectively). ELF to total- and free-drug (f) plasma (based on protein binding of 91.8% in mice) AUC0-24 ratios were 0.22 and 2.7, respectively. ELF and f plasma AUC0-24:MIC ratios were most predictive of efficacy (r2=0.85 for ELF and f plasma). […] AUC0-24:MIC ratio was the PK-PD index most predictive of efficacy for CEM-101. PK-PD targets based on these relationships will inform dose selection for future clinical studies.

[11] = tested on: S. pneumoniae; experiment: PK-PD analysis in neutropenic murine-lung infection model; assay type: in vivo; conditions: neutropenic mice
Procedure: Using a murine-lung infection model, epithelial lining fluid (ELF) and plasma PK-PD measures most closely associated with CEM-101 efficacy against S. pneumoniae and targets based on PK-PD relationships for such indices were identified.
as §4

[12] = Protein binding; assay type: in vitro ADME; conditions: mice
From the text: as §5

CC[C@H]1OC(=O)[C@@](C)(F)C(=O)[C@H](C)[C@@H](O[C@@H]2O[C@H](C)C[C@H](N(C)C)[C@H]2O)[C@](C)(OC)C[C@@H](C)C(=O)[C@H](C)[C@H]2N(CCCCn3cc(-c4cccc(N)c4)nn3)C(=O)O[C@]12C [CEM-101, solithromycin]
MIC Range [1]: 8 to 32 µg/mL
MIC Range [2]: 64 µg/mL
Time-kill Macrobroth MIC ([3]; strain SA 2230): 0.125 µg/mL
Time-kill Macrobroth MIC ([3]; strain SA 2232): 0.125 µg/mL
Time-kill Macrobroth MIC ([4]; strain BCEP 953): 8.0 µg/mL
Time-kill Macrobroth MIC ([4]; strain BCEP 954): 32.0 µg/mL
Time-kill Macrobroth MIC ([5]; strain PSAR 461): 64.0 µg/mL
Time-kill Macrobroth MIC ([5]; strain PSAR 468): 32.0 µg/mL
tissues with highest concentrations [6]: highest in liver, spleen, lung, and salivary gland
lung/plasma ratio ([7]; females): 6.2
lung/plasma ratio ([7]; males): 17.6
heart concentration relative to plasma ([8]; monkey): 54 fold
liver concentration relative to plasma ([8]; monkeys, 200 mg/kg/d): 711 fold
lung concentration relative to plasma ([8]; monkeys, 200 mg/kg/d): 503 fold
exposure in AM compared to plasma [9]: > 180 times
exposure in ELF compared to plasma [9]: > 8 times
ELF to total-drug plasma AUC0-24 ratio [10]: 0.22
ELF to free-drug (f) plasma AUC0-24 ratio ([10]; based on protein binding of 91.8%): 2.7
ELF AUC0-24:MIC ratio associated with 1-log 10 CFU reduction from baseline [11]: 15.1
ELF AUC0-24:MIC ratio associated with 2-log 10 CFU reduction from baseline [11]: 59.8
ELF AUC0-24:MIC ratio associated with net bacterial stasis [11]: 1.26
f plasma AUC0-24:MIC ratio associated with 1-log 10 CFU reduction from baseline [11]: 6.31
f plasma AUC0-24:MIC ratio associated with 2-log 10 CFU reduction from baseline [11]: 12.8
f plasma AUC0-24:MIC ratio associated with net bacterial stasis [11]: 1.65
protein binding [12]: 91.8%
